Assay results reported in BindingDB's records for doi:10.1021/jm00108a031 (Roche Research Center, 1991).

assay: In vitro for platelet activating factor receptor antagonist activity in a binding assay using washed whole dog platelets.

Compound | IC50 [µM]
CCCCc1ccc(/C=C\c2cc3c(s2)-n2c(C)nnc2CN=C3c2ccccc2Cl)cc1 | 0.01
Cc1nnc2n1-c1sc(-c3nn[nH]c3C(=O)N3CCOCC3)cc1C(c1ccccc1Cl)=NC2 | 1
Cc1nnc2n1-c1sc(C#C[Si](C)(C)C)cc1C(c1ccccc1Cl)=NC2 | 0.02
Cc1nnc2n1-c1sc(-c3cc(=O)[nH][nH]3)cc1C(c1ccccc1Cl)=NC2 | 1
CCCCc1ccc(C#Cc2cc3c(s2)-n2c(C)nnc2CN=C3c2ccccc2Cl)cc1 | 0.65
Cc1nnc2n1-c1sc(C#CCO)cc1C(c1ccccc1Cl)=NC2 | 0.18
CCCCc1ccc(CCc2cc3c(s2)-n2c(C)nnc2CN=C3c2ccccc2Cl)cc1 | 0.01
Cc1nnc2n1-c1sc(C#Cc3ccccn3)cc1C(c1ccccc1Cl)=NC2 | 0.25
Cc1nnc2n1-c1sc(CCc3ccc(-n4ccnc4)cc3)cc1C(c1ccccc1Cl)=NC2 | 0.1
Cc1nnc2n1-c1sc(/C=C\c3ccc4c(c3)CCC4)cc1C(c1ccccc1Cl)=NC2 | 0.11
Cc1nnc2n1-c1sc(C#Cc3ccc4c(c3)CCC4)cc1C(c1ccccc1Cl)=NC2 | 0.38
Cc1cc(CCc2cc3c(s2)-n2c(C)nnc2CN=C3c2ccccc2Cl)cc2c1OC(C)(C)C2 | 0.4
Cc1nnc2n1-c1sc(C#Cc3ccc(C4CCCCC4)cc3)cc1C(c1ccccc1Cl)=NC2 | 0.3
Cc1nnc2n1-c1sc(C#Cc3ccc(-c4ccccn4)s3)cc1C(c1ccccc1Cl)=NC2 | 0.06
Cc1nnc2n1-c1sc(C(CC(=O)N3CCOCC3)N=N)cc1C(c1ccccc1Cl)=NC2 (configuration not stated) | 0.42
Cc1nnc2n1-c1sc(CCc3ccc(C4CCCCC4)cc3)cc1C(c1ccccc1Cl)=NC2 | 0.035
Cc1nnc2n1-c1sc(CCc3ccc(CC(C)C)cc3)cc1C(c1ccccc1Cl)=NC2 | 0.03
C#Cc1cc2c(s1)-n1c(C)nnc1CN=C2c1ccccc1Cl | 0.01
Cc1nnc2n1-c1sc(CCc3ccc4c(c3)CCC4)cc1C(c1ccccc1Cl)=NC2 | 0.02
Cc1nnc2n1-c1sc(Br)cc1C(c1ccccc1Cl)=NC2 [2-Bromo-4-(2-chloro-phenyl)-9-methyl-6H-1-thia-5,7,8,9a-tetraaza-cyclopenta[e]azulene] | 0.3
Cc1nnc2n1-c1sc(/C=C\c3ccc(CC(C)C)cc3)cc1C(c1ccccc1Cl)=NC2 | 0.08
Cc1nnc2n1-c1sc(CCc3ccc(-c4ccccn4)s3)cc1C(c1ccccc1Cl)=NC2 | 0.008
Cc1nnc2n1-c1sc(C#Cc3ccc4c(c3)CCO4)cc1C(c1ccccc1Cl)=NC2 | 0.42
Cc1nnc2n1-c1sc(CCc3ccc4c(c3)CCO4)cc1C(c1ccccc1Cl)=NC2 | 0.02
Cc1nnc2n1-c1sc(/C=C\c3ccc(C4CCCCC4)cc3)cc1C(c1ccccc1Cl)=NC2 | 0.12
Cc1cc(C#Cc2cc3c(s2)-n2c(C)nnc2CN=C3c2ccccc2Cl)cc2c1OC(C)(C)C2 | 0.4
Cc1nnc2n1-c1sc(/C=C\C(=O)N3CCOCC3)cc1C(c1ccccc1Cl)=NC2 | 0.18

assay: Compound tested in vitro for Platelet activating factor receptor antagonist activity in a binding assay using washed whole dog platelets

Compound | IC50 [µM]
Cc1nnc2n1-c1sc(C#Cc3cccc4ccccc34)cc1C(c1ccccc1Cl)=NC2 | 0.15
Cc1nnc2n1-c1sc(C#Cc3ccc(CC(C)C)cc3)cc1C(c1ccccc1Cl)=NC2 | 0.1
Cc1nnc2n1-c1sc(C#Cc3ccccc3)cc1C(c1ccccc1Cl)=NC2 | 0.1
Cc1nnc2n1-c1sc(/C=C\c3ccccn3)cc1C(c1ccccc1Cl)=NC2 | 0.4
Cc1nnc2n1-c1sc(C#CC(=O)N3CCOCC3)cc1C(c1ccccc1Cl)=NC2 | 0.26
